Laboratory results: publication PMC4780864, “Family-wide Structural Analysis of Human Numb-Associated Protein Kinases” (Structure(London, England:1993), 2016)

Columns and labels:
Assay in all cases: biochemical
GAK = molecular target: T1, GAK (Homo sapiens, UniProt O14976); parameters: Thermal shift assay (DSF, SYPRO Orange), 2 uM kinase domain, mean delta Tm of triplicates versus DMSO; conditions: read-out: GAK
T1 construct: catalytic domain-containing construct
T1 sequence (O14976 1-1311): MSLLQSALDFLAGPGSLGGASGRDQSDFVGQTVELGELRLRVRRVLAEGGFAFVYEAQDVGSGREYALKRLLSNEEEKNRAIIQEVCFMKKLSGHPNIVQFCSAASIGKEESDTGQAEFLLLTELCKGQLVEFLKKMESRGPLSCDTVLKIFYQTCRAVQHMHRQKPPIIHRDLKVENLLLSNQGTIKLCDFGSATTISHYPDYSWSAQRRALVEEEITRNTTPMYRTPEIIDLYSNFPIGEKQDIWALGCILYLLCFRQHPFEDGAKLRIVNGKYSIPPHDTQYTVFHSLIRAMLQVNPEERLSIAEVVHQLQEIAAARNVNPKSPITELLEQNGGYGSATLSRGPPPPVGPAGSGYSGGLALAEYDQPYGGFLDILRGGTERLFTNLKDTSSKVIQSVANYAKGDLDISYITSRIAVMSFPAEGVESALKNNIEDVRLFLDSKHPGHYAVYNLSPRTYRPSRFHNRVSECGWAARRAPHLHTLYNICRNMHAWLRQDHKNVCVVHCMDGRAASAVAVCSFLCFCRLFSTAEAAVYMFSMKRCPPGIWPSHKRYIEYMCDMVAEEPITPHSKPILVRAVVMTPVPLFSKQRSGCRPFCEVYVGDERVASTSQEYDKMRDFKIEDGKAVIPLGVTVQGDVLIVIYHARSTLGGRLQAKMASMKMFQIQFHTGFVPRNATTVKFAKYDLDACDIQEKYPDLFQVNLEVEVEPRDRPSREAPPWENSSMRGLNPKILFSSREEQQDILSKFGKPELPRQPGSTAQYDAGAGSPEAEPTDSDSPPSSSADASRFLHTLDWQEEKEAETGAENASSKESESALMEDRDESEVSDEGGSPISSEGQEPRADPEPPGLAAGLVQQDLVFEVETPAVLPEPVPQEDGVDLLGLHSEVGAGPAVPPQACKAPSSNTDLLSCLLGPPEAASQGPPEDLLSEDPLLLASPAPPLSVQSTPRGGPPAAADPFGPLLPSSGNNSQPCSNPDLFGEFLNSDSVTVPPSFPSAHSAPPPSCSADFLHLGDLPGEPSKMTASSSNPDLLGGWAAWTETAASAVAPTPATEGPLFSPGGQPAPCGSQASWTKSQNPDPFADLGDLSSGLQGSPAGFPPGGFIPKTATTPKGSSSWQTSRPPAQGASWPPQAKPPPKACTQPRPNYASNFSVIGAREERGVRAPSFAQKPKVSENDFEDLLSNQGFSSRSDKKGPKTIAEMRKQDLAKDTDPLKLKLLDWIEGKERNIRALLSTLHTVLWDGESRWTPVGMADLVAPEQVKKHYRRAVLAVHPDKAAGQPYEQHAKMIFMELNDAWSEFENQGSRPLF
Experimental: (§1) All measurements were performed in triplicate and mean values were reported for all compounds (Table S1). […] However, NAKs are often omitted from selectivity panels, including commercial screens.

BIKE = molecular target: T2, BIKE (Homo sapiens, UniProt Q9NSY1); parameters: Thermal shift assay (DSF, SYPRO Orange), 2 uM kinase domain, mean delta Tm of triplicates versus DMSO; conditions: read-out: BIKE
T2 construct: gene BMP2K; catalytic domain-containing construct
Experimental: as §1

MPSK1 = molecular target: T3, MPSK1 (Homo sapiens, UniProt O75716); parameters: Thermal shift assay (DSF, SYPRO Orange), 2 uM kinase domain, mean delta Tm of triplicates versus DMSO; conditions: read-out: MPSK1
T3 construct: gene STK16; catalytic domain-containing construct
Experimental: as §1

AAK1 = AAK1 (Homo sapiens, UniProt Q2M2I8); parameters: kinase domain; Thermal shift assay (DSF, SYPRO Orange), 2 uM kinase domain, mean delta Tm of triplicates versus DMSO; conditions: read-out: AAK1
Experimental: as §1

T2 sequence (Q9NSY1 whole entry, the tested form may be a part): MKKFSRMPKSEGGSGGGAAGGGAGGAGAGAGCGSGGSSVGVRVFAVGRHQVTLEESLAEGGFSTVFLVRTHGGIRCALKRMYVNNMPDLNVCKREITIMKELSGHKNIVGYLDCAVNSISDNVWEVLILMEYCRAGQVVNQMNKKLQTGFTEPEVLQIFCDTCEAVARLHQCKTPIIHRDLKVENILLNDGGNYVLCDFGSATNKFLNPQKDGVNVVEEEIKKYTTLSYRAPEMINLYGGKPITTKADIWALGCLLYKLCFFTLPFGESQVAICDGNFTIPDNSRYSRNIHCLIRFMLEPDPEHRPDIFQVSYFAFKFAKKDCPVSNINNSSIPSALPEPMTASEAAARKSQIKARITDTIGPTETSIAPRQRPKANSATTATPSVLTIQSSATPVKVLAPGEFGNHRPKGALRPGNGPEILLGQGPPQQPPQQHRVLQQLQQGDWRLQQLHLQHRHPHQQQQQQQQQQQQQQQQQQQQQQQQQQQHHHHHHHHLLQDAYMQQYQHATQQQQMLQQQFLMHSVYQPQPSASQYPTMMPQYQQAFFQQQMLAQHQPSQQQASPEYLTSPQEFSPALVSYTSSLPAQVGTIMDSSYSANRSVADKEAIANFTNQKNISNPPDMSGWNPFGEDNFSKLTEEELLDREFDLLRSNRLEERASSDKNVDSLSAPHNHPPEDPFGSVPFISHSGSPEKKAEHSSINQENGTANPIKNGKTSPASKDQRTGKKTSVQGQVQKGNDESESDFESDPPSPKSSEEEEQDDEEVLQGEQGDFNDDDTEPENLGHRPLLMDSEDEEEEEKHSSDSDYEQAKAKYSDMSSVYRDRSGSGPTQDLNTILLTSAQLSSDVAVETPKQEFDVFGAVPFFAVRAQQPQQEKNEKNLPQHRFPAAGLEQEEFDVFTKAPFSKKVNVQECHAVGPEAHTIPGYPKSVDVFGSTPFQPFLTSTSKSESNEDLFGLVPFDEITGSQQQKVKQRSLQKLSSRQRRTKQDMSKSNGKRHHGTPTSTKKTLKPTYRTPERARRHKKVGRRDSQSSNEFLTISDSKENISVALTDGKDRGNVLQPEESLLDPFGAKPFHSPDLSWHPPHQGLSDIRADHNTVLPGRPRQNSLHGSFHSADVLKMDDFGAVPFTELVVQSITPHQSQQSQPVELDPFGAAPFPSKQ
AAK1, sequence (Q2M2I8 27-365 limits assumed): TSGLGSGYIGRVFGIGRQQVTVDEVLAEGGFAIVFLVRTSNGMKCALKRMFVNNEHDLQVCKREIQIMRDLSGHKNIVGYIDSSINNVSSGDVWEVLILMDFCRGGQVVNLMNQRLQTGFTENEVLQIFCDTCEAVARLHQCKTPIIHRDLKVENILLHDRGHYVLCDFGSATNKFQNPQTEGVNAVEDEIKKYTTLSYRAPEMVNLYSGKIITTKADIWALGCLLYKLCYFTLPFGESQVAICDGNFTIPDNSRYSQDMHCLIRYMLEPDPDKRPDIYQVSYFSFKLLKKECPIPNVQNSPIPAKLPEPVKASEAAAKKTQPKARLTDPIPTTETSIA
T3 sequence (O75716 whole entry, the tested form may be a part): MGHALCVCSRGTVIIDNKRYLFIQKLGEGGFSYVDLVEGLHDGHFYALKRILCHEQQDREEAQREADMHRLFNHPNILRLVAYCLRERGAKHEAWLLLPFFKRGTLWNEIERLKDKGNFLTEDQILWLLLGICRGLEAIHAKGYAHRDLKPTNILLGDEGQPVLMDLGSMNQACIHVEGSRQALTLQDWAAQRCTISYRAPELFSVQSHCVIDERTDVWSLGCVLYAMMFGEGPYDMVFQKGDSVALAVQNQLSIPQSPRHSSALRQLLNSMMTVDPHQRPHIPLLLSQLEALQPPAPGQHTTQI

SMILES	ΔTm at 12.5 µM (GAK) [°C]	ΔTm at 12.5 µM (BIKE) [°C]	ΔTm at 12.5 µM (MPSK1) [°C]	ΔTm at 12.5 µM (AAK1) [°C]
O=C(Cc1ccc(-c2ccc(OCCN3CCOCC3)cc2)cn1)NCc1ccccc1 [KX2-391]	0.46	1.76	0.373	0.0867
C[C@@H](Oc1ccc2[nH]nc(/C=C/c3cnn(CCO)c3)c2c1)c1c(Cl)cncc1Cl [LY2874455]	5.81	15.2	10.3	11.6
CS(=O)(=O)CCNCc1ccc(-c2ccc3ncnc(Nc4ccc(OCc5cccc(F)c5)c(Cl)c4)c3c2)o1 [Lapatinib]	1.67	1.13	1.16	1.7
COc1cc2nccc(Oc3ccc(NC(=O)NC4CC4)c(Cl)c3)c2cc1C(N)=O [Lenvatinib]	2.03	2.49	1.5	2.07
C[C@]12O[C@H](C[C@]1(O)CO)n1c3ccccc3c3c4c(c5c6ccccc6n2c5c31)CNC4=O [Lestaurtinib]	10.8	16.5	11.1	13.6
Cc1ccc(F)c(NC(=O)Nc2ccc(-c3cccc4[nH]nc(N)c34)cc2)c1 [Linifanib]	2.49	5.72	5.04	1.96
C[C@]1(O)C[C@@H](c2nc(-c3ccc4ccc(-c5ccccc5)nc4c3)c3c(N)nccn32)C1 [Linsitinib]	-0.6	0.903	0.73	0.277
Cn1cnc2c(F)c(Nc3ccc(Br)cc3F)c(C(=O)NOCCO)cc21 [MEK-162]	-0.617	0.367	0.6	0.197
C=CCn1c(=O)c2cnc(Nc3ccc(N4CCN(C)CC4)cc3)nc2n1-c1cccc(C(C)(C)O)n1 [MK-1775]	5.08	4.38	1.18	4.03
NC1(c2ccc(-c3nc4ccn5c(=O)[nH]nc5c4cc3-c3ccccc3)cc2)CCC1 [MK-2206]	-0.83	0.637	1.1	1.1
Cc1ccc(NC(=O)c2ccc(CN3CCN(C)CC3)cc2)cc1Nc1nc(-c2cccnc2)cs1 [Masitinib]	1.98	0.833	0.99	0.547
CO[C@@H]1[C@H](N(C)C(=O)c2ccccc2)C[C@H]2O[C@]1(C)n1c3ccccc3c3c4c(c5c6ccccc6n2c5c31)C(=O)NC4 [Midostaurin]	6.33	14.9	10.4	12.8
CNC(=O)c1nn(C)c2c1C(C)(C)Cc1cnc(Nc3ccc(N4CCN(C)CC4)cc3)nc1-2 [Milciclib]	10.6	7.73	10.1	5.61
N#CCNC(=O)c1ccc(-c2ccnc(Nc3ccc(N4CCOCC4)cc3)n2)cc1 [Momelotinib]	7.03	15	11.1	14.6
CC1(C)CNc2cc(NC(=O)c3cccnc3NCc3ccncc3)ccc21 [Motesanib]	0.437	0.3	0.7	0.467
CCN1CCN(c2ccc(Nc3cc(N(C)C(=O)Nc4c(Cl)c(OC)cc(OC)c4Cl)ncn3)cc2)CC1 [NVP-BGJ398]	-0.197	0.763	0.66	0.41
CCOc1cc2ncc(C#N)c(Nc3ccc(OCc4ccccn4)c(Cl)c3)c2cc1NC(=O)/C=C/CN(C)C [Neratinib]	2.52	1.97	0.927	0.98

SMILES	ΔTm at 12.5 µM (GAK) [°C]	ΔTm at 12.5 µM (BIKE) [°C]	ΔTm at 12.5 µM (MPSK1) [°C]	ΔTm at 12.5 µM (AAK1) [°C]
Cc1cn(-c2cc(NC(=O)c3ccc(C)c(Nc4nccc(-c5cccnc5)n4)c3)cc(C(F)(F)F)c2)cn1 [Nilotinib]	5.36	1.06	2.48	1.13
COc1cccc2cc(-c3nc([C@H]4CC[C@H](C(=O)O)CC4)n4ncnc(N)c34)[nH]c12 [OSI-027]	-0.547	0.31	0.92	0.0767
Cc1[nH]c(/C=C2\C(=O)Nc3ccccc32)c(C)c1CCC(=O)O [Orantinib]	3.99	12	5.87	6.55
CN(c1ccccc1CNc1nc(Nc2ccc3c(c2)CC(=O)N3)ncc1C(F)(F)F)S(C)(=O)=O [PF 431396]	5.02	9.5	13.9	4.81
Cn1cc(-c2[nH]c3cc(NC(=O)[C@H](N)C4CCCCC4)cc4c3c2C=NNC4=O)cn1 [PF-00477736]	9.49	19.1	6.45	17.8
Nc1nccc(-c2c(-c3ccc(F)cc3)ncn2C2CCCCC2)n1 [PF-670462]	6.13	1.04	1.83	1.68
Cc1nc(Nc2n[nH]c3c2CN(C(=O)N[C@H](CN(C)C)c2ccccc2)C3(C)C)c2sccc2n1 [PF-03758309]	4.73	10.6	8.65	5.65
COc1ccc(-c2cc3c(C)nc(N)nc3n([C@H]3CC[C@H](OCCO)CC3)c2=O)cn1 [PF-04691502]	-0.593	0.623	1.43	0.327
CCc1cncnc1N1CCN(Cc2nc3ccc(C(F)(F)F)cc3[nH]2)CC1 [PF-04708671]	-0.243	0.45	1.04	0.437
Nc1ncnc2c1c(COc1cccc(Cl)c1)nn2C1CCOCC1 [PF-4800567]	-0.663	0.437	0.933	0.283
Cc1ccc([N+](=O)[O-])cc1S(=O)(=O)N(C)/N=C/c1cnc2ccc(Br)cn12 [PIK-75]	3.07	7.9	9.97	5
CC(=O)c1c(C)c2cnc(Nc3ccc(N4CCNCC4)cn3)nc2n(C2CCCC2)c1=O [Palbociclib]	0.733	5.02	7.72	2.94
Cc1ccc(Nc2nccc(N(C)c3ccc4c(C)n(C)nc4c3)n2)cc1S(N)(=O)=O [Pazopanib]	2.72	7.25	7.31	3.85
COc1ccc(Cl)c(Nc2nc3ccccc3nc2NS(=O)(=O)c2cccc(NC(=O)C(C)(C)N)c2)c1 [Pilaralisib]	-0.55	0.99	0.39	0.00667
O=C(NC[C@H](O)CO)c1ccncc1Nc1ccc(I)cc1F [Pimasertib]	-0.59	0.36	0.313	0.0267
Cc1ccc(C(=O)Nc2ccc(CN3CCN(C)CC3)c(C(F)(F)F)c2)cc1C#Cc1cnc2cccnn12 [Ponatinib]	13	2.93	2.24	2.99
CC(C)(C)c1cc(NC(=O)Nc2ccc(-c3cn4c(n3)sc3cc(OCCN5CCOCC5)ccc34)cc2)no1 [Quizartinib]	0.0333	0.54	0.333	0.43
